Laboratory results from PubChem BioAssay (NCI).
“And” between values parts separate entries of the source, which are not always exact repeats. Equal values may be shown once.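 The compound was tested at five concentrations on cells cultured in 96-well plates, with a 48-hour exposure period. The concentration for 50% growth inhibition is given as GI50. TGI marks complete inhibition of growth.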

How the values were obtained:
Assay in all cases: inhibition of tumour cell growth, NCI panel, 48 h
MALME-3M melanoma = test system: MALME-3M melanoma
SF-295 CNS = test system: SF-295 CNS
HT29 colon = test system: HT29 colon
SNB-19 CNS = test system: SNB-19 CNS
SF-268 CNS = test system: SF-268 CNS
UO-31 renal = test system: UO-31 renal
TK-10 renal = test system: TK-10 renal
HCC-2998 colon = test system: HCC-2998 colon
SF-539 CNS = test system: SF-539 CNS
K-562 leukemia = test system: K-562 leukemia

SMILES | TGI (MALME-3M melanoma) [µM] | TGI (SF-295 CNS) [µM] | TGI (HT29 colon) [µM] | TGI (SNB-19 CNS) [µM] | TGI (SF-268 CNS) [µM] | TGI (UO-31 renal) [µM] | TGI (TK-10 renal) [µM] | TGI (HCC-2998 colon) [µM] | TGI (SF-539 CNS) [µM] | TGI (K-562 leukemia) [µM] | GI50 (MALME-3M melanoma) [µM] | GI50 (SF-295 CNS) [µM] | GI50 (HT29 colon) | GI50 (SNB-19 CNS) | GI50 (SF-268 CNS) [µM] | GI50 (UO-31 renal) [µM] | GI50 (TK-10 renal) [µM] | GI50 (HCC-2998 colon) [µM] | GI50 (SF-539 CNS) | GI50 (K-562 leukemia)
CN(/N=C/c1ccnc2ccccc12)c1c([N+](=O)[O-])cc([N+](=O)[O-])cc1[N+](=O)[O-] | 99.1 | > 100 | > 100 | > 100 | > 100 | > 100 | > 100 | > 100 | > 100 | > 100 |  |  |  |  |  |  |  |  |  | 
O=C(CCN1CCCCC1)N1CCc2c([nH]c3ccccc23)C1c1cccnc1 (configuration not stated) | 41.6 | > 100 | 75.4 | > 100 | > 87.9 | 71.1 | > 100 | 54.8 | > 85.7 | 75.1 |  |  |  |  |  |  |  |  |  | 
CCNC(=O)Oc1ccc(/C(=C(/C)Cc2ccc(OC)cc2)c2ccc(OCCN(CC)CC)cc2)cc1 | 3.22 | 3.25 | 3.96 | 6.16 | 4.75 | 3.02 | 6.05 | 3.29 | 3.25 | 6.09 | 1.64 | 1.66 | 2.02 µM | 2.57 µM | 1.98 | 1.52 | 2.03 | 1.7 | 1.61 µM | 2 µM
Oc1c(Cl)cc(Cl)c2ccc(Cn3cc(-c4ccc(C(F)(F)F)cc4)nn3)nc12 | 3.13 | 32.1 | 6.75 | 22.8 | 20.1 | 3.62 | 4.22 | 20.3 | 2.94 | > 100 | 1.63 | 17.2 | 2.46 µM | 8.94 µM | 4.64 | 1.36 | 1.95 | 5.86 | 1.52 µM | 0.479 µM
CN1CCN(Cc2ccc(NC(=O)c3cncc(C#Cc4cnc(N)c5cccnc45)c3)cc2C(F)(F)F)CC1 | 0.273 | > 50 | > 50 | > 50 | > 50 | 2.78 | > 50 | > 50 | 1.78 | > 50 | 0.0558 | 2.07 | 0.157 µM | 2.05 µM | 0.466 | 1.1 | 1.33 | 0.484 | 0.288 µM | 0.005 µM
Clc1cccc(-c2nnc(-c3nn(-c4ccccc4)c4nc5ccccc5nc34)o2)c1 | > 100 | > 100 | > 100 | > 100 | > 100 | > 100 | > 100 | > 100 | > 100 | > 100 |  |  |  |  |  |  |  |  |  | 
NC1=NN(c2ccccc2)C(=O)C1C(=O)C(=O)Nc1ccc(Cl)c(Cl)c1 (configuration not stated) | > 100 | > 100 | > 100 | > 100 | > 100 | > 100 | > 100 | > 100 | > 100 | > 100 |  |  |  |  |  |  |  |  |  | 
COc1cc(C(=O)c2cnc(-c3cccc4[nH]ccc34)[nH]2)cc(OC)c1OC | 83 | > 100 | < 0.01 | > 100 | > 100 | 21 | 66.6 | 59.3 |  | 42.3 | 19.6 | < 0.01 | 0.0493 µM and < 0.01 µM | 0.0465 µM and < 0.01 µM |  | < 0.01 | < 0.01 |  | 0.0278 µM and < 0.01 µM | 0.0386 µM and < 0.01 µM
CSc1nc2c(c(=O)n1C)CN(C1CCCCC1)C(=O)C(c1ccccc1)N2 (configuration not stated) | 43.5 | > 100 | > 100 | > 100 | > 100 | > 100 | > 100 | > 100 | > 100 | > 100 | 10.9 | 35.3 | 33.3 µM | 36.7 µM | 25.3 | 34.1 | 31.4 | 35.9 | 51.7 µM | 4 µM
